This note sets out measurements from patent US20140147860A1, “Acoustic Cytometry Methods and Protocols” (LIFE TECHNOLOGIES CORPORATION, priority 2011, published 2014).

For one experiment, the system named is S. aureus cells. As to the kind of experiment: Relative membrane potential in an S. aureus culture, BacLight Bacterial Membrane Potential Kit (DiOC2), flow cytometry. It counts as cell-based, Staphylococcus aureus. Conditions: SYTOX Blue-positive dead cells excluded, data not shown. In general terms: In flow cytometry, cells or beads pass a laser one at a time.

In experiment [1] the test system is Jurkat cells (T-cell leukemia, human). As to the kind of experiment: Apoptosis detection with the Annexin V Dead Cell Apoptosis Kit by acoustic flow cytometry. Conditions: 10 μM camptothecin for 4 hr, Annexin V staining, 488 nm excitation. The experiment is classed as cell-based. The source says: Apoptotic plasma membrane assays for flow cytometry: Some of the earliest detectable apoptotic events involve the plasma membrane, including changes in membrane asymmetry and permeability. In addition to annexin V conjugates, Life Technologies provides unique assays to measure membrane changes under conditions where annexin V binding is problematic, such as in adherent cells, and without using special buffers. Annexin V conjugates In apoptotic cells, phosphatidylserine (PS) is translocated from the inner to the outer leaflet of the plasma membrane, thus exposing PS to the external cellular environment. Annexin V labeled with a fluorophore can identify apoptotic cells by binding to PS exposed on the outer leaflet of the membrane. The Alexa Fluor® series of dyes, used in Life Technologies Annexin V Dead Cell Apoptosis Kits provides brighter and more photostable bioconjugates than other organic dyes with similar spectral characteristics. Apoptosis detection with the Annexin V Dead Cell Apoptosis Kit. Jurkat cells (T-cell leukemia, human) treated with 10 μM camptothecin for 4 hr (B) or untreated control (A). Cells were stained using the Annexin V Dead Cell Apoptosis Kit and analyzed by flow cytometry with 488 nm excitation on the Attune® Acoustic Focusing Cytometer with 530/30 Xnm and 575/24 nm bandpass filters. Data were acquired with a standard 100 XμL/min collection rate. […]

Procedure for S. aureus cells: Analysis of relative membrane potential in an S. aureus culture before and after disruption with a proton ionophore. S. aureus cells were diluted to ˜1×10^6 CFU/mL in PBS prior to staining with the BacLight™ Bacterial Membrane Potential Kit (Cat. No. B34950) and 20 TM SYTOX® Blue (Cat. No. S34862). Samples stained with 30 TM 3,3′-diethyloxacarbocyanine iodide (DiOC2) alone, and samples stained with DiOC2 and treated with 5 TM carbonylcyanide 3-chlorophenylhydrazone (CCCP, for disruption of membrane potential), were analyzed on the Attune® Acoustic Focusing Cytometer equipped with 488 nm laser for DiOC2 fluorescence excitation. At increased membrane potential, DiOC2 molecules self-associate in the cytosol and shift DiOC2 fluorescence emission from green (detected in the BL1 channel using a 530/30 bandpass filter) to red (detected in the BL3 channel using a 640 longpass filter).

As to `N#CC(C#N)=NNc1cccc(Cl)c1` [CCCP, carbonylcyanide 3-chlorophenylhydrazone], in the experiment on S. aureus cells, the “red-shifted DiOC2 fluorescence (membrane potential), treated versus untreated sample” value was “increased red-shifted DiOC2 fluorescence in the untreated sample (−CCCP, green) as compared to the CCCP-treated sample”.

As for `CC[C@@]1(O)C(=O)OCc2c1cc1n(c2=O)Cc2cc3ccccc3nc2-1` [camptothecin], in experiment [1], the “percentage of apoptotic cells versus untreated control” value was “higher percentage of apoptotic cells”.
